Source: patent US6337417B1, “N-phenyltetrahydrophthalamic acid derivatives, methods of producing same, and herbicides containing same as effective components” (Central Glass Co., Ltd., priority 1994, dated 2002)

Legend:
Type in all cases: in vivo
Parameters in all cases: key: 5: completely killed; 4: seriously injured; 3: considerably injured; 2: somewhat injured; 1: slightly injured; 0: not injured (normally grown)
Conditions in all cases: 4 weeks after treatment
rice = assay: Experiment 2 foliage treatment: rice
Protocol: (§1) Upon seedling stage (two- or three-leaved stage) of rice, cockspur (Panicum crus-galli), garden radish, aobiyu (slender amaranth, Amaranthus viridis) and mehishiba (henry crabgrass, Digitaria cliaris) which were grown on a cultivated soil put in pots of 1/15500 ares, a selected compound obtained in a manner analogous to Example 8, in suspended wettable powder, was sprayed to each plant. After that, the pots were kept in a glass chamber to allow each plant to grow, and after the lapse of 4 weeks from the treatment with the selected compounds the herbicidal effects were evaluated. The evaluation of the herbicidal effects was similarly conducted as to that of Experiment 1.

[1] = test system: cockspur (Panicum crus-galli); assay: Experiment 2 foliage treatment: cockspur
Protocol: as §1

[2] = test system: hotarui (bulrush, Scirpus juncoides); assay: Experiment 1 flooded soil treatment: hotarui
From the text: (§2) Paddy soil (clay loam) was put into a pot so as to have a surface area of 1/15500 ares. Uniformly mixed seeds of several kinds of weeds, viz., nobie (barnyardgrass, Echinochloa spp.), broad-leaved weeds, hotarui (bulrush, Scirpus juncoides) and tamagayatsuri (small-flowered umbrellaplant, Cyperus difformis), were sown in the surface layer of the soil in each pot, and then paddy rice seedlings at the two- or three-leaved stage were transplanted into each pot to a depth of 2 cm, and water was fed into each pot so as to provide a 3 cm deep water layer on the soil surface. After 3 days, in other words at the initial stage of germination of nobie (barnyardgrass, Echinochloa spp.), a predetermined amount of a selected compound obtained in a manner analogous to Example 8 in the form of diluted aqueous solution was dropped into the water layer in each pot. After that, the pots were kept in a glass chamber to allow the paddy rice and the weeds to grow, and after the lapse of 4 weeks from the treatment with the selected compounds, the herbicidal effects and the degree of injury to the paddy rice were evaluated. In the table, the herbicidal effects and the degree of injury to the paddy rice are indicated by numerical values, which have the following meaning.
(§3) 0: not injured (normally grown)

[3] = test system: nobie (barnyardgrass, Echinochloa spp.); assay: Experiment 1 flooded soil treatment: nobie
From the text: as §2, §3

paddy rice = assay: Experiment 1 flooded soil treatment: injury to paddy rice
From the text: as §2, §3

[4] = test system: mehishiba (henry crabgrass, Digitaria cliaris); assay: Experiment 2 foliage treatment: mehishiba
Protocol: as §1

[5] = test system: tamagayatsuri (small-flowered umbrellaplant, Cyperus difformis); assay: Experiment 1 flooded soil treatment: tamagayatsuri
From the text: as §2, §3

garden radish = assay: Experiment 2 foliage treatment: garden radish
Protocol: as §1

[6] = test system: aobiyu (slender amaranth, Amaranthus viridis); assay: Experiment 2 foliage treatment: aobiyu
Protocol: as §1

broad-leaved weeds = assay: Experiment 1 flooded soil treatment: broad-leaved weeds
From the text: as §2, §3

SMILES: CCCCCOC(=O)C1=C(C(=O)N(C(=O)CC)c2cc(SCC(=O)OC)c(Cl)cc2F)CCCC1 [compound 17]
- Herbicidal Effect rice (rice; 40 g/10a): 1
- Herbicidal Effect rice (rice; 80 g/10a): 1
- Herbicidal Effect cockspur ([1]; 40 g/10a): 2
- Herbicidal Effect cockspur ([1]; 80 g/10a): 2
- Herbicidal Effect hotarui ([2]; 12.5 g/10a): 4
- Herbicidal Effect hotarui ([2]; 25 g/10a): 5
- Herbicidal Effect nobie ([3]; 12.5 g/10a): 5
- Herbicidal Effect nobie ([3]; 25 g/10a): 5
- Injury of Paddy (paddy rice; 12.5 g/10a): 0
- Injury of Paddy (paddy rice; 25 g/10a): 0.5
- Herbicidal Effect mehishiba ([4]; 40 g/10a): 1
- Herbicidal Effect mehishiba ([4]; 80 g/10a): 1
- Herbicidal Effect tamagayatsuri ([5]; 12.5 g/10a): 5
- Herbicidal Effect tamagayatsuri ([5]; 25 g/10a): 5
- Herbicidal Effect garden radish (garden radish; 40 g/10a): 5
- Herbicidal Effect garden radish (garden radish; 80 g/10a): 5
- Herbicidal Effect aobiyu ([6]; 40 g/10a): 5
- Herbicidal Effect aobiyu ([6]; 80 g/10a): 5
- Herbicidal Effect broad-leaved weed (broad-leaved weeds; 12.5 g/10a): 5
- Herbicidal Effect broad-leaved weed (broad-leaved weeds; 25 g/10a): 5

SMILES: COC(=O)CSc1cc(N(C(=O)C2=C(C(=O)OC)CCCC2)C(=O)c2cccc(F)c2)c(F)cc1Cl [compound 19]
- Herbicidal Effect rice (rice; 40 g/10a): 1
- Herbicidal Effect rice (rice; 80 g/10a): 1
- Herbicidal Effect cockspur ([1]; 40 g/10a): 1
- Herbicidal Effect cockspur ([1]; 80 g/10a): 1
- Herbicidal Effect hotarui ([2]; 12.5 g/10a): 5
- Herbicidal Effect hotarui ([2]; 25 g/10a): 5
- Herbicidal Effect nobie ([3]; 12.5 g/10a): 5
- Herbicidal Effect nobie ([3]; 25 g/10a): 5
- Injury of Paddy (paddy rice; 12.5 g/10a): 0
- Injury of Paddy (paddy rice; 25 g/10a): 0.5
- Herbicidal Effect mehishiba ([4]; 40 g/10a): 1
- Herbicidal Effect mehishiba ([4]; 80 g/10a): 1
- Herbicidal Effect tamagayatsuri ([5]; 12.5 g/10a): 5
- Herbicidal Effect tamagayatsuri ([5]; 25 g/10a): 5
- Herbicidal Effect garden radish (garden radish; 40 g/10a): 4
- Herbicidal Effect garden radish (garden radish; 80 g/10a): 5
- Herbicidal Effect aobiyu ([6]; 40 g/10a): 5
- Herbicidal Effect aobiyu ([6]; 80 g/10a): 5
- Herbicidal Effect broad-leaved weed (broad-leaved weeds; 12.5 g/10a): 5
- Herbicidal Effect broad-leaved weed (broad-leaved weeds; 25 g/10a): 5

SMILES: CCC(=O)N(C(=O)C1=C(C(=O)OC)CCCC1)c1cc(SCC(=O)OC)c(Cl)cc1F [compound 16]
- Herbicidal Effect rice (rice; 40 g/10a): 1
- Herbicidal Effect rice (rice; 80 g/10a): 1
- Herbicidal Effect cockspur ([1]; 40 g/10a): 1
- Herbicidal Effect cockspur ([1]; 80 g/10a): 1
- Herbicidal Effect hotarui ([2]; 12.5 g/10a): 5
- Herbicidal Effect hotarui ([2]; 25 g/10a): 5
- Herbicidal Effect nobie ([3]; 12.5 g/10a): 5
- Herbicidal Effect nobie ([3]; 25 g/10a): 5
- Injury of Paddy (paddy rice; 12.5 g/10a): 0.5
- Injury of Paddy (paddy rice; 25 g/10a): 0.5
- Herbicidal Effect mehishiba ([4]; 40 g/10a): 1
- Herbicidal Effect mehishiba ([4]; 80 g/10a): 1
- Herbicidal Effect tamagayatsuri ([5]; 12.5 g/10a): 5
- Herbicidal Effect tamagayatsuri ([5]; 25 g/10a): 5
- Herbicidal Effect garden radish (garden radish; 40 g/10a): 5
- Herbicidal Effect garden radish (garden radish; 80 g/10a): 5
- Herbicidal Effect aobiyu ([6]; 40 g/10a): 5
- Herbicidal Effect aobiyu ([6]; 80 g/10a): 5
- Herbicidal Effect broad-leaved weed (broad-leaved weeds; 12.5 g/10a): 5
- Herbicidal Effect broad-leaved weed (broad-leaved weeds; 25 g/10a): 5

SMILES: CCOC(=O)C1=C(C(=O)N(C(C)=O)c2cc(SCC(=O)OC)c(Cl)cc2F)CCCC1 [Compound No. 12]
- Herbicidal Effect rice (rice; 40 g/10a): 1
- Herbicidal Effect rice (rice; 80 g/10a): 1
- Herbicidal Effect cockspur ([1]; 40 g/10a): 1
- Herbicidal Effect cockspur ([1]; 80 g/10a): 1
- Herbicidal Effect hotarui ([2]; 12.5 g/10a): 4
- Herbicidal Effect hotarui ([2]; 25 g/10a): 5
- Herbicidal Effect nobie ([3]; 12.5 g/10a): 5
- Herbicidal Effect nobie ([3]; 25 g/10a): 5
- Injury of Paddy (paddy rice; 12.5 g/10a): 0.5
- Injury of Paddy (paddy rice; 25 g/10a): 0.5
- Herbicidal Effect mehishiba ([4]; 40 g/10a): 1
- Herbicidal Effect mehishiba ([4]; 80 g/10a): 1
- Herbicidal Effect tamagayatsuri ([5]; 12.5 g/10a): 5
- Herbicidal Effect tamagayatsuri ([5]; 25 g/10a): 5
- Herbicidal Effect garden radish (garden radish; 40 g/10a): 5
- Herbicidal Effect garden radish (garden radish; 80 g/10a): 5
- Herbicidal Effect aobiyu ([6]; 40 g/10a): 5
- Herbicidal Effect aobiyu ([6]; 80 g/10a): 5
- Herbicidal Effect broad-leaved weed (broad-leaved weeds; 12.5 g/10a): 5
- Herbicidal Effect broad-leaved weed (broad-leaved weeds; 25 g/10a): 5

SMILES: C#CCOC(=O)C1=C(C(=O)N(C(C)=O)c2cc(SCC(=O)OC)c(Cl)cc2F)CCCC1 [compound 15]
- Herbicidal Effect rice (rice; 40 g/10a): 1
- Herbicidal Effect rice (rice; 80 g/10a): 1
- Herbicidal Effect cockspur ([1]; 40 g/10a): 1
- Herbicidal Effect cockspur ([1]; 80 g/10a): 1
- Herbicidal Effect hotarui ([2]; 12.5 g/10a): 4
- Herbicidal Effect hotarui ([2]; 25 g/10a): 4
- Herbicidal Effect nobie ([3]; 12.5 g/10a): 5
- Herbicidal Effect nobie ([3]; 25 g/10a): 5
- Injury of Paddy (paddy rice; 12.5 g/10a): 0
- Injury of Paddy (paddy rice; 25 g/10a): 0.5
- Herbicidal Effect mehishiba ([4]; 40 g/10a): 1
- Herbicidal Effect mehishiba ([4]; 80 g/10a): 1
- Herbicidal Effect tamagayatsuri ([5]; 12.5 g/10a): 4
- Herbicidal Effect tamagayatsuri ([5]; 25 g/10a): 5
- Herbicidal Effect garden radish (garden radish; 40 g/10a): 5
- Herbicidal Effect garden radish (garden radish; 80 g/10a): 5
- Herbicidal Effect aobiyu ([6]; 40 g/10a): 4.5
- Herbicidal Effect aobiyu ([6]; 80 g/10a): 5
- Herbicidal Effect broad-leaved weed (broad-leaved weeds; 12.5 g/10a): 5
- Herbicidal Effect broad-leaved weed (broad-leaved weeds; 25 g/10a): 5
